Measured values published in US11267825B2 (AICURIS GMBH & CO. KG, priority 2017, dated 2022).

Legend:
HBV core protein = HBV core protein (UniProt P03146); type: biochemical; settings: read-out: Assembly Activity (IC50); BODIPY-FL labelled core protein, assembly started with NaCl, read after 6 min
Method: Biochemical Capsid Assembly Assay
The screening for assembly effector activity was done based on a fluorescence quenching assay published by Zlotnick et al. (2007). The C-terminal truncated core protein containing 149 amino acids of the N-terminal assembly domain was fused to a unique cysteine residue at position 150 and was expressed in E. coli using the pET expression system (Merck Chemicals, Darmstadt). Purification of core dimer protein was performed using a sequence of size exclusion chromatography steps. In brief, the cell pellet from 1 L BL21 (DE3) Rosetta2 culture expressing the coding sequence of core protein cloned NdeI/XhoI into expression plasmid pET21b was treated for 1 h on ice with a native lysis buffer (Qproteome Bacterial Protein Prep Kit; Qiagen, Hilden). After a centrifugation step the supernatant was precipitated during 2 h stirring on ice with 0.23 g/ml of solid ammonium sulfate. Following further centrifugation the resulting pellet was resolved in buffer A (100 mM Tris, pH 7.5; 100 mM NaCl; 2 mM DTT) and was subsequently loaded onto a buffer A equilibrated CaptoCore 700 column (GE HealthCare, Frankfurt). The column flow through containing the assembled HBV capsid was dialyzed against buffer N (50 mM NaHCO3 pH 9.6; 5 mM DTT) before urea was added to a final concentration of 3M to dissociate the capsid into core dimers for 1.5 h on ice. The protein solution was then loaded onto a 1 L Sephacryl S300 column. After elution with buffer N core dimer containing fractions were identified by SDS-PAGE and subsequently pooled and dialyzed against 50 mM HEPES pH 7.5; 5 mM DTT. To improve the assembly capacity of the purified core dimers a second round of assembly and disassembly starting with the addition of 5 M NaCl and including the size exclusion chromatography steps described above was performed. From the last chromatography step core dimer containing fractions were pooled and stored in aliquots at concentrations between 1.5 to 2.0 mg/ml at −80° C.
Immediately before labelling the core protein was reduced by adding freshly prepared DTT in a final concentration of 20 mM. After 40 min incubation on ice storage buffer and DTT was removed using a Sephadex G-25 column (GE HealthCare, Frankfurt) and 50 mM HEPES, pH 7.5. For labelling 1.6 mg/ml core protein was incubated at 4° C. and darkness overnight with BODIPY-FL maleimide (Invitrogen, Karlsruhe) in a final concentration of 1 mM. After labelling the free dye was removed by an additional desalting step using a Sephadex G-25 column. Labelled core dimers were stored in aliquots at 4° C. In the dimeric state the fluorescence signal of the labelled core protein is high and is quenched during the assembly of the core dimers to high molecular capsid structures. The screening assay was performed in black 384 well microtiter plates in a total assay volume of 10 μl using 50 mM HEPES pH 7.5 and 1.0 to 2.0 μM labelled core protein. Each screening compound was added in 8 different concentrations using a 0.5 log-unit serial dilution starting at a final concentration of 100 μM, 31.6 μM or 10 μM. In any case the DMSO concentration over the entire microtiter plate was 0.5%. The assembly reaction was started by the injection of NaCl to a final concentration of […] which induces the assembly process to approximately 25% of the maximal quenched signal. 6 min after starting the reaction the fluorescence signal was measured using a Clariostar plate reader (BMG Labtech, Ortenberg) with an excitation of 477 nm and an emission of 525 nm. As 100% and 0% assembly control HEPES buffer containing 2.5 M and 0 M NaCl was used. Experiments were performed thrice in triplicates. EC50 values were calculated by non-linear regression analysis using the Graph Pad Prism 6 software (GraphPad Software, La Jolla, USA).

HBV = assay: Determination of HBV DNA from the supernatants of HepAD38 cells (anti-HBV activity); type: cell-based, hepatitis B virus; settings: Hepatitis B virus, 144 h; HBV DNA in HepAD38 supernatant at day 6; read-out: Cell Activity (EC50)
Method: Determination of HBV DNA from the Supernatants of HepAD38 Cells
The anti-HBV activity was analysed in the stable transfected cell line HepAD38, which has been described to secrete high levels of HBV virion particles (Ladner et al., 1997). In brief, HepAD38 cells were cultured at 37° C. at 5% CO2 and 95% humidity in 200 μl maintenance medium, which was Dulbecco's modified Eagle's medium/Nutrient Mixture F-12 (Gibco, Karlsruhe), 10% fetal bovine serum (PAN Biotech Aidenbach) supplemented with 50 μg/ml penicillin/streptomycin (Gibco, Karlsruhe), 2 mM L-glutamine (PAN Biotech, Aidenbach), 400 μg/ml G418 (AppliChem, Darmstadt) and 0.3 μg/ml tetracycline. Cells were subcultured once a week in a 1:5 ratio, but were usually not passaged more than ten times. For the assay 60,000 cells were seeded in maintenance medium without any tetracycline into each well of a 96-well plate and treated with serial half-log dilutions of test compound. To minimize edge effects the outer 36 wells of the plate were not used but were filled with assay medium. On each assay plate six wells for the virus control (untreated HepAD38 cells) and six wells for the cell control (HepAD38 cells treated with 0.3 μg/ml tetracycline) were allocated, respectively. In addition, one plate set with reference inhibitors like BAY 41-4109, entecavir, and lamivudine instead of screening compounds were prepared in each experiment. In general, experiments were performed thrice in triplicates. At day 6 HBV DNA from 100 μl filtrated cell culture supernatant (AcroPrep Advance 96 Filter Plate, […] Supor membran, PALL GmbH, Dreieich) was automatically purified on the MagNa Pure LC instrument using the MagNA Pure 96 DNA and Viral NA Small Volume Kit (Roche Diagnostics, Mannheim) according to the instructions of the manufacturer. EC50 values were calculated from relative copy numbers of HBV DNA. In brief, 5 μl of the 100 μl eluate containing HBV DNA were subjected to PCR LC480 Probes Master Kit (Roche) together with 1 μM antisense primer […], 0.5 μM sense primer […], 0.3 μM hybprobes […]-FL and LC640-[…]-PH (TIBMolBiol, Berlin) to a final volume of 12.5 μl. The PCR was performed on the Light Cycler 480 real time system (Roche Diagnostics, Mannheim) using the following protocol: Pre-incubation for 1 min at 95° C., amplification: 40 cycles×(10 sec at 95° C., 50 sec at 60° C., 1 sec at 70° C.), cooling for 10 sec at 40° C. Viral load was quantitated against known standards using HBV plasmid DNA of pCH-9/3091 (Nassal et al., 1990, Cell 63: 1357-1363) and the LightCycler 480 SW 1.5 software (Roche Diagnostics, Mannheim) and EC50 values were calculated using non-linear regression with GraphPad Prism 6 (GraphPad Software Inc., La Jolla, USA).

Sequence of HBV core protein (P03146 whole entry, looked up): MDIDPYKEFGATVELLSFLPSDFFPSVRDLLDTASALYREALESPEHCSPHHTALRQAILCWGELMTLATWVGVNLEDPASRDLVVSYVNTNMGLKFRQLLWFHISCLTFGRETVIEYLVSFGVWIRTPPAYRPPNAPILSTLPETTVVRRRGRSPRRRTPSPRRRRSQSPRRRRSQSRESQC

Compound | IC50 (HBV core protein) [µM] | EC50 (HBV) [µM]
O=C(c1cc2ccccc2[nH]1)N1CCc2nc(NC[C@@H]3C[C@@H]4CC[C@H]3O4)sc2C1 (racemic) [Example 33, (+/−)-trans-5-(1H-indole-2-carbonyl)-N-{[(1R,2S,4S)-7-oxabicyclo[2.2.1]heptan-2-yl]methyl}-4H,5H,6H,7H-[1,3]thiazolo[5,4-c]pyridin-2-amine] | < 5 | < 1
O=C(c1cc2ccccc2[nH]1)N1CCc2nc(NC[C@H]3C[C@@H]4CC[C@H]3O4)sc2C1 (racemic) [Example 34, (+/−)-cis-5-(1H-indole-2-carbonyl)-N-{1[(1R,2R,4S)-7-oxabicyclo[2.2.1]heptan-2-yl]methyl}-4H,5H,6H,7H-[1,3]thiazolo[5,4-c]pyridin-2-amine] | < 5 | < 1
O=C(c1cc2ccccc2[nH]1)N1CCc2nc(N[C@H]3COCC[C@@H]3O)sc2C1 (racemic) [Example 339, (±)-3-{[5-(1H-indole-2-carbonyl)-4H,5H,6H,7H-[1,3]thiazolo[5,4-c]pyridin-2-yl]amino}oxan-4-ol] | 5 to 10 | < 1
CC(O)CNc1nc2c(s1)CN(C(=O)c1cc3ccccc3[nH]1)CC2 (stereo in doubt) [Example 131, (2S)-1-{[5-(1H-indole-2-carbonyl)-4H,5H,6H,7H-[1,3]thiazolo[5,4-c]pyridin-2-yl]amino}propan-2-ol] | < 5 | < 1
O=C(c1cc2ccccc2[nH]1)N1CCc2nc(CNCC3CCOC3)sc2C1 (stereo not drawn) [Example 1, {[5-(1H-indole-2-carbonyl)-4H,5H,6H,7H-[1,3]thiazolo[5,4-c]pyridin-2-yl]methyl}[(oxolan-3-yl)methyl]amine] | < 100 | 1 to 10
O=C(Nc1nc2c(s1)CN(C(=O)c1cc3ccccc3[nH]1)CC2)C1CCOCC1 [Example 2, N-[5-(1H-indole-2-carbonyl)-4H,5H,6H,7H-[1,3]thiazolo[5,4-c]pyridin-2-yl]oxane-4-carboxamide] | < 5 | < 1
COCC(=O)Nc1nc2c(s1)CN(C(=O)c1cc3ccccc3[nH]1)CC2 [Example 3, N-[5-(1H-indole-2-carbonyl)-4H,5H,6H,7H-[1,3]thiazolo[5,4-c]pyridin-2-yl]-2-methoxyacetamide] | < 5 | < 1
CCOCC(=O)Nc1nc2c(s1)CN(C(=O)c1cc3ccccc3[nH]1)CC2 [Example 4, 2-ethoxy-N-[5-(1H-indole-2-carbonyl)-4H,5H,6H,7H-[1,3]thiazolo[5,4-c]pyridin-2-yl]acetamide] | < 5 | < 1
CCOC(=O)N1CCC(Nc2nc3c(s2)CN(C(=O)c2cc4ccccc4[nH]2)CC3)CC1 [Example 5, Ethyl 4-{[5-(1H-indole-2-carbonyl)-4H,5H,6H,7H-[1,3]thiazolo[5,4-c]pyridin-2-yl]amino}piperidine-1-carboxylate] | 5 to 10 | < 1
O=C(c1cc2ccccc2[nH]1)N1CCc2nc(NS(=O)(=O)C3CC3)sc2C1 [Example 6, N-[5-(1H-indole-2-carbonyl)-4H,5H,6H,7H-[1,3]thiazolo[5,4-c]pyridin-2-yl]cyclopropanesulfonamide] | < 100 | < 1
CCc1cc(F)cc2[nH]c(C(=O)N3CCc4nc(N)sc4C3)cc12 [Example 7, 5-(4-ethyl-6-fluoro-1H-indole-2-carbonyl)-4H,5H,6H,7H-[1,3]thiazolo[5,4-c]pyridin-2-amine] | < 5 | < 1
CCc1ccc(F)c2[nH]c(C(=O)N3CCc4nc(N)sc4C3)cc12 [Example 8, 5-(4-ethyl-7-fluoro-1H-indole-2-carbonyl)-4H,5H,6H,7H-[1,3]thiazolo[5,4-c]pyridin-2-amine] | < 5 | < 1
Nc1nc2c(s1)CN(C(=O)c1cc3c(CO)cccc3[nH]1)CC2 [Example 9, (2-{2-amino-4H,5H,6H,7H-[1,3]thiazolo[5,4-c]pyridine-5-carbonyl}-1H-indol-4-yl)methanol] | 5 to 10 | 1 to 10
CC(O)c1cccc2[nH]c(C(=O)N3CCc4nc(N)sc4C3)cc12 (stereo not drawn) [Example 10, 1-(2-{2-amino-4H,5H,6H,7H-[1,3]thiazolo[5,4-c]pyridine-5-carbonyl}-1H-indol-4-yl)ethan-1-ol] | < 100 | 1 to 10
O=C(c1cc2ccccc2[nH]1)N1CCc2nc(NC34CC(C3)C4)sc2C1 [Example 431, N-{bicyclo[1.1.1]pentan-1-yl}-5-(1H-indole-2-carbonyl)-4H,5H,6H,7H-[1,3]thiazolo[5,4-c]pyridin-2-amine] |  | < 1
N#CC12CC(Nc3nc4c(s3)CN(C(=O)c3cc5ccccc5[nH]3)CC4)(C1)C2 [Example 435, 3-{[5-(1H-indole-2-carbonyl)-4H,5H,6H,7H-[1,3]thiazolo[5,4-c]pyridin-2-yl]amino}bicyclo[1.1.1]pentane-1-carbonitrile] |  | < 1
O=C(c1cc2ccccc2[nH]1)N1CCc2nc(NCC(F)(F)C3CC3)sc2C1 [Example 436, N-(2-cyclopropyl-2,2-difluoroethyl)-5-(1H-indole-2-carbonyl)-4H,5H,6H,7H-[1,3]thiazolo[5,4-c]pyridin-2-amine] |  | < 1
Cc1c(F)ccc2[nH]c(C(=O)N3CCc4nc(N)sc4C3)cc12 [Example 437, 5-(5-fluoro-4-methyl-1H-indole-2-carbonyl)-4H,5H,6H,7H-[1,3]thiazolo[5,4-c]pyridin-2-amine] |  | < 1
O=C(c1cc2ccccc2[nH]1)N1CCc2nc(NCC3(O)CC(F)(F)C3)sc2C1 [Example 440, 3,3-difluoro-1-({[5-(1H-indole-2-carbonyl)-4H,5H,6H,7H-[1,3]thiazolo[5,4-c]pyridin-2-yl]amino}methyl)cyclobutan-1-ol] |  | < 1
